Entries after “also recorded” stand apart in the source; their conditions may differ. Square brackets hold non-standard residues; d marks the D form. Ends that are not written are not given here. Phe(4-NH2) = Nc1ccc(C[C@H](N)C(=O)O)cc1; Nle = CCCC[C@H](N)C(=O)O; Ac5c = NC1(C(=O)O)CCCC1
Experiments:
[1] = test system: Normal human fibroblasts; assay: Contraction of collagen lattices by human fibroblasts; format: cell-based; conditions: for Diameter of Lattice, Day 1 / Diameter of Lattice, Day 2 / Diameter of Lattice, Day 3 / Diameter of Lattice, Day 4: 10 μg/ml peptide, 1×10^5 fibroblasts/well; for Diameter of Lattice, Day 1: Day 1 of culture; for Diameter of Lattice, Day 2: Day 2 of culture; for Diameter of Lattice, Day 3: Day 3 of culture; for Diameter of Lattice, Day 4: Day 4 of culture
Protocol: Normal human fibroblasts were purchased from Clonetics (San Diego, Calif.) and were thawed and cultured in Fibroblast Growth Medium (Clonetics) according to the manufacturer's instructions. Once the cells reached confluence in the flask, they were harvested by trypsinization and utilized for the studies described below.
Rat tails were harvested from 200 gram female rats and frozen until use. The frozen rat tails were thawed in 70% (vol/vol) ethanol for 20 minutes. The tendon bundles were excised in 70% ethanol in a vertical laminar flow hood. The individual tendons were pulled out of the tendon sheath, minced, and placed in dilute acetic acid (1:1000) using 250 ml per tail. The mixture was incubated at 4° C. for 48 hours, at which point the minced tendons had swelled to the volume of the dilute acetic acid. The viscous mixture was centrifuged at 23,000 rpm in a Beckman L ultracentrifuge for 1 hour. The supernatant was harvested and further refined. This crude collagen solution was mixed with 0.1M NaOH in a 6:1 ratio to neutralize the acetic acid and precipitate the collagen. The mixture was then centrifuged at 1500 rpm for 5 minutes. The supernatant was discarded and an equal volume of fresh acetic acid (1:1000) was introduced to resolubilize the collagen over 48 hours. This solution was stored at 4° C. as refined collagen. The protein concentration was determined by BCA assay.
The collagen lattices for the assessment of contraction by fibroblasts and angiotensin II were formed in 60 mm Falcon bacteriological dishes. Each dish contained 1 ml 4×DMEM High glucose medium, 1 ml fetal calf serum, 0.25 ml NaOH, 1.5 ml of 500 μg/ml refined collagen and 1 ml of fibroblasts in Fibroblast Growth Medium (7.5×10^4 cells/ml to 7.5×10^5 cells/ml). In these cultures, various concentrations of AII (1 to 10 μg/ml) were added to assess the effect of AII on the formation of an artificial dermis. The cultures were placed in an incubator at 37° C. in an atmosphere of 5% CO2 in air. At various times after culture initiation, the diameter of the formed lattice was measured. As there are slight differences in diameter at various points (ie: the lattices were not always perfectly round), the average of the largest and the smallest diameters were taken.
Similar experiments were conducted using AII analogues and fragments, except that ten μg/ml of each of the peptides shown in Table 3 were added to 1×10^5 of fibroblasts/well. At various times after culture initiation, the diameter of the formed lattice was measured.

[2] = test system: Human keratinocytes; assay: Keratinocyte proliferation on Integra artificial dermis; format: cell-based; conditions: 10 μg/ml peptide, 1×10^5 cells/ml
From the text: Integra, a commercially available artificial dermis of chondrotin sulfate and collagen, was obtained (Integra Life Sciences) and used in culture as a matrix for keratinocyte growth. The Integras was washed free of preservative by a sterile saline for injection and cut to size to fit snugly into the bottom of 24 well plates. After trimming, the pieces of Integra were placed silicone-side down into the wells.
Human keratinocytes were purchased from Clonetics and thawed and cultured as described in Example 3, except that they were grown in Keratinocyte Growth Medium, as per the manufacturer's instructions. Once the cells reached confluence in the flask, they were detached from the tissue culture flasks by trypsinization. The cells were resuspended at 1×10^5 cells/ml in Keratinocyte Growth Medium or Keratinocyte Basal Medium with or without 10 μg/ml of various AII-related peptides (AII, AII(1-7), Pro3 AII(1-7), Ala4-AIII, and Pro3-AII; see Table 5 below). One ml of these cell preparations was added to wells of the 24 well plates containing Integra membrane. The cultures were placed in an incubator at 37° C. in an atmosphere of 5% CO2 in air. At various times after initiation of the cultures, the number of keratinocytes on the surface of the Integra membrane in 5 100×fields was assessed under phase contrast microscopy.

[3] = test system: living skin equivalent (LSE) epidermis; assay: Epidermal thickness of living skin equivalent (LSE) presoaked in AII and grafted on nude mice; format: in vivo, Swiss nude mice
From the text: Twenty three male Swiss nude mice (22-24 grams) were purchased from Taconic Laboratories and quarantined at least two days prior to surgery, and divided into 4 groups of mice. The mice were anesthetized with an intramuscular injection of Ketamine (ketaset; Phoenix Pharmaceuticals, Inc.) and Rompun (xylazine; Phoenix Pharmaceuticals, Inc.) and a 1 cm×1 cm full thickness skin excision was made on their dorsal surface. Each group received an Apligraph LSE (Organogenesis; Canton, Mass.) that had been soaked for 10 minutes in concentrations of AII ranging from 0 to 1.0 mg/ml. The LSE was placed in the defect and trimmed with microscissors so that no gap was observed between the edges of the mouse skin and the LSE. After the graft was placed, the dorsal surface of the mouse was covered by petroleum embedded gauze (Dermacea) followed by two adhesive bandages (Baxter). After recovery from anesthesia, the mice were returned to their individual cages and observed daily until euthenasia. The mice received intramuscular analgesia for the first three days after surgery. No mouse lost their bandage prior to bandage removal on day 7 and day 23. […]
[…] The thickest part of each graft was measured and the thickness of the graft at one-half of a 10×field to each side of the thickest portion was also measured.

[4] = test system: keratinocytes from explants of human skin; assay: Outgrowth of keratinocytes from explants of human skin on Dermagraft; format: cell-based; conditions: AII 1 or 10 μg/ml, 7 days
From the text: Human skin explants were obtained from surgery of split thickness skin grafts and cut by scalpel in to 2 mm×2 mm squares. Ten explants per condition were placed dermal side down on frozen and thawed Dermagraft (Advanced Tissue Sciences, San Diego, Calif.) and cultured at the air-liquid interface using Keratinocyte-SFM medium (Gibco BRL, Grand Island, N.Y.) supplemented with epidermal growth factor and bovine pituitary extract according to the manufacturer's instructions. The culture medium contained penicillin (50 U/ml) and streptomycin (50 μg/ml) and extra calcium chloride to a final concentration of 1 mM. Angiotensin II was added to the culture medium at a final concentration of 1 or 10 μg/ml. The cultures were maintained at 37° C. with 5% CO2 and medium with and without AII and the medium was changed twice weekly. After 7 days, the cultures were fixed in formalin for one hour, stained with hematoxylin and washed in tap water. The dermal replacements appeared dark purple except for the area where the keratinocytes exclude the stain. Cultures were photographed using a dissection microscope at a fixed magnification and the area of outgrowth was quantified by gravimetric planimetry.

[5] = test system: AT2 receptor; conditions: cited from earlier work
[6] = Unspecified test of effectiveness of AII fragments; conditions: test not specified

Row | Substance | Diameter of Lattice, Day 1 [1] [cm] | Diameter of Lattice, Day 2 [1] [cm] | Diameter of Lattice, Day 3 [1] [cm] | Diameter of Lattice, Day 4 [1] [cm] | proliferation of keratinocytes (number on the surface of the Integra membrane) [2] | further results
1 | --RVYnLHPF (RVY[Nle]HPF) [NorLeu4 AIII] | 3.4 | 2.0 | 1.6 | 1.5 | – | –
2 | Asp-Arg-Val-Tyr-Ile-His-Pro (DRVYIHP) [AII(1-7)] | 3.4 | 2.4 | 2.0 | 1.7 | increased the proliferation of keratinocytes | –
3 | Asp-Arg-Val-Tyr-Ile-His-Pro-Phe (DRVYIHPF) [AII, known pressor agent, commercially available, reference compound] | 3.3 | 2.4 | 1.6 | 1.4 | increased the proliferation of keratinocytes | contraction of collagen lattices ([1]; AII 1 to 10 μg/ml, fibroblasts 7.5×10^4 to 7.5×10^5 cells/ml): accelerated the contraction of collagen lattices; vessels attached to underside of graft ([3]; day 7, one of the AII-treated grafts): numerous vessels attached to its underside; epidermal thickness ([3]; day 23 post-grafting, LSE soaked 10 minutes in AII 0 to 1.0 mg/ml): increased in a concentration-dependent manner; area of the artificial dermis covered with keratinocytes (outgrowth) [4]: increased the area of the artificial dermis covered with keratinocytes; affinity for AT2 than AT1 ([5]; AT2 versus AT1): 100 times
4 | Asp-Arg-Val-Tyr-Ile-Xaa-Pro-Phe (DRVYI[Phe(4-NH2)]PF) [(p-NH2-Phe)6-AII] | – | – | – | – | – | binding characteristics ([5]; experimental models tested, compared with AT2 antagonists): comparable to AT2 antagonists
5 | DR(Acpc)YIHPF (DR[Ac5c]YIHPF) [Acpc3 AII] | 3.5 | 2.0 | 1.6 | 1.4 | – | –
6 | DRPYIHP [Pro3 AII(1-7)] | – | – | – | – | increased the proliferation of keratinocytes | –
7 | DRPYIHPF [Pro3-AII] | – | – | – | – | increased the proliferation of keratinocytes | –
8 | DRVYIHPI [Ile8 AII] | 3.4 | 2.4 | 1.7 | 1.4 | – | –
9 | GRVYIHPF [Gly1 AII] | 3.4 | 2.2 | 1.6 | 1.5 | – | –
10 | His-Pro-Phe (HPF) [AII(6-8)] | – | – | – | – | – | effectiveness [6]: not to be effective
11 | RVYAHPF [Ala4-AIII] | 3.4 | 2.7 | 1.9 | 1.6 | increased the proliferation of keratinocytes | –
12 | Tyr-Ile-His-Pro-Phe (YIHPF) [AII(4-8)] | – | – | – | – | – | effectiveness [6]: not to be effective; also recorded: ineffective in repeated tests

Source: patent US6498138B1, “Method of promoting production of living tissue equivalents” (University of Southern California, priority 1998, dated 2002)
